The values that follow come from ChEMBL document CHEMBL1201862, “PubChem BioAssay data set” (2004).

Among the test systems are K562; MDA-MB-231; IGROV-1; HCC 2998; OVCAR-4; SF-539; HCT-15; SK-OV-3; CCRF-CEM; A549; HL-60; UACC-62; BT-549; SW-620; HOP-62; Hs-578T; MDA-MB-435; SF-268; HT-29; Malme-3M.
Test in all cases: NCI-60 cell line screen, 48 h

Each structure is given as a SMILES string.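 Five compound concentrations were applied to cells in 96-well plates for 48 hours; endpoints were derived by simple linear interpolation of the resulting dose-response curve. Abbreviation: GI50, concentration required for 50% inhibition of growth.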 The source made the active and inactive calls. Rule as the data show it: active = GI50 up to about 1.1 µM and inactive = higher.

Regarding `COc1ccc(OC)c2sc(N3C(=O)/C(=C/c4ccccc4S)N=C3c3ccccc3)nc12`, the GI50 in the assay with K562 is 26 µM (inactive); in the assay with MDA-MB-231 it was > 100 µM (inactive); in the assay with IGROV-1 it was 90.4 µM (inactive); in the assay on HCC 2998 it was > 100 µM (inactive); in the assay on OVCAR-4 it was 39.5 µM (inactive); in the assay with SF-539, 28.6 µM (inactive). The GI50 with HCT-15 was 34.1 µM; in the assay on SK-OV-3, > 100 µM (inactive); in the assay on CCRF-CEM, 22.3 µM (inactive); with A549, 42.8 µM (inactive); in the assay on HL-60, 26.1 µM (inactive); in the assay with UACC-62, 21.5 µM (inactive). Besides, the GI50 was 45.9 µM (inactive) with BT-549; 39.2 µM (inactive) with SW-620; 82.6 µM (inactive) with HOP-62; 49.7 µM (inactive) in the assay with Hs-578T; 17.6 µM (inactive) in the assay on MDA-MB-435; 59.7 µM (inactive) with SF-268. For the same molecule, the GI50 with HT-29 is 38.9 µM (inactive).

For the molecule `COc1ccc(NC(=S)N/N=C/c2c(C)n(C)n(-c3ccccc3)c2=O)cc1`, the GI50 with K562 was 26.2 µM (inactive); in the assay with MDA-MB-231, 17.5 µM (inactive); in the assay on IGROV-1 it was 47.5 µM (inactive); in the assay on HCC 2998 it was > 100 µM (inactive); with OVCAR-4, 19.1 µM (inactive); in the assay on SF-539 it was 21.3 µM (inactive). In addition, the GI50 in the assay on HCT-15 is above 100 µM; with SK-OV-3, 28.6 µM (inactive); in the assay on CCRF-CEM it was > 100 µM (inactive); in the assay with HL-60 it was > 100 µM (inactive); in the assay on UACC-62 it was 51.1 µM (inactive); in the assay with BT-549, 43.7 µM (inactive). The GI50 in the assay on SW-620 is > 100 µM (inactive); with HOP-62, 19.4 µM (inactive); in the assay with Hs-578T it was 29.9 µM (inactive); with MDA-MB-435 it was 51.4 µM (inactive); with SF-268, 27.9 µM (inactive); with HT-29, 69.5 µM (inactive).

On to `COc1cc(C2SCC(=O)N2c2ccccn2)cc(OC)c1OC` (stereo not drawn), for which the GI50 with K562 is 48.4 µM (inactive); with MDA-MB-231, > 100 µM (inactive); in the assay on IGROV-1, 81.1 µM (inactive); with HCC 2998, > 100 µM (inactive); with OVCAR-4, > 100 µM (inactive); in the assay on SF-539, 65 µM (inactive). In addition, the GI50 with HCT-15 was 55.5 µM; in the assay with SK-OV-3, > 100 µM (inactive); with CCRF-CEM, > 100 µM (inactive); in the assay with A549, > 100 µM (inactive); in the assay with HL-60, 58.7 µM (inactive); in the assay with UACC-62, 87.5 µM (inactive). For the same molecule, the GI50 is 98.6 µM (inactive) in the assay with BT-549; 76 µM (inactive) in the assay with SW-620; > 100 µM (inactive) in the assay with Hs-578T; 27 µM (inactive) in the assay with MDA-MB-435; > 100 µM (inactive) in the assay with SF-268; > 100 µM (inactive) in the assay with HT-29.

For the molecule `CCN1C(=S)n2cccc2C1CC(=O)c1ccc(Cl)cc1` (stereo not drawn), the GI50 is 53.7 µM (inactive) with K562; 59.6 µM (inactive) with MDA-MB-231; > 100 µM (inactive) with IGROV-1; 73.8 µM (inactive) in the assay on HCC 2998; 57.3 µM (inactive) in the assay with Malme-3M; 93.3 µM (inactive) in the assay with OVCAR-4. In addition, the GI50 is 51.8 µM with HCT-15; > 100 µM (inactive) in the assay on SK-OV-3; 15.3 µM (inactive) in the assay with A549; 26.7 µM (inactive) with HL-60; 62.2 µM (inactive) with UACC-62; 64.9 µM (inactive) with BT-549. In addition, the GI50 was 42.9 µM (inactive) with SW-620; > 100 µM (inactive) with HOP-62; > 100 µM (inactive) in the assay on Hs-578T; 56.1 µM (inactive) in the assay on MDA-MB-435; 63.1 µM (inactive) in the assay on SF-268; 68.7 µM (inactive) in the assay with HT-29.

In the case of `CCOC(=O)c1nc[nH]c1/N=N/N(C)N`, the GI50 is > 10 µM (inactive) with K562; > 100 µM (inactive) in the assay with MDA-MB-231; > 100 µM (inactive) in the assay with IGROV-1; > 100 µM (inactive) in the assay with HCC 2998; > 100 µM (inactive) in the assay with Malme-3M; > 100 µM (inactive) in the assay on OVCAR-4. For the same molecule, the GI50 is > 100 µM (inactive) with SF-539; 91.4 µM in the assay with HCT-15; > 100 µM (inactive) in the assay with SK-OV-3; > 100 µM (inactive) in the assay with A549; 29.2 µM (inactive) with HL-60; > 100 µM (inactive) in the assay with UACC-62. Moreover, the GI50 with BT-549, in the assay on SW-620, with HOP-62, in the assay with Hs-578T, in the assay on MDA-MB-435 and in the assay with SF-268 was > 100 µM (inactive) in each case. Also, the GI50 in the assay with HT-29 is 61.1 µM (inactive).

Take `COc1cccc(N2C(=O)C3c4[nH]c5ccc(C)cc5c4C4CCC(C)CC4C3C2=O)c1` (stereo not drawn): the GI50 was 30.3 µM (inactive) in the assay on K562; 26.5 µM (inactive) in the assay on MDA-MB-231; 89.5 µM (inactive) in the assay with IGROV-1; > 100 µM (inactive) with HCC 2998; > 100 µM (inactive) with Malme-3M; 57.5 µM (inactive) in the assay on SF-539. The GI50 in the assay with HCT-15 was above 100 µM; in the assay with SK-OV-3 it was 30.3 µM (inactive); with CCRF-CEM, 31.7 µM (inactive); in the assay on A549, > 100 µM (inactive); in the assay with HL-60, 10.6 µM (inactive); in the assay on UACC-62, 30.3 µM (inactive). Besides, the GI50 in the assay on BT-549 was 76 µM (inactive); with SW-620, > 100 µM (inactive); in the assay with HOP-62, 1.4 µM (inactive); in the assay with Hs-578T, 23.7 µM (inactive); with MDA-MB-435 it was > 100 µM (inactive); in the assay with SF-268, 47.2 µM (inactive). The GI50 in the assay with HT-29 was > 100 µM (inactive).

`O=c1oc2c(Br)c(O)c(Br)cc2c2ccccc12`: the GI50 in the assay on K562 was 23.1 µM (inactive); in the assay on MDA-MB-231, 16.9 µM (inactive); in the assay with IGROV-1 it was 30.6 µM (inactive); with HCC 2998, 33.3 µM (inactive); in the assay with Malme-3M, 26.5 µM (inactive); in the assay on OVCAR-4, 29.7 µM (inactive). For the same molecule, the GI50 is 23.9 µM (inactive) in the assay on SF-539; 19.2 µM with HCT-15; 25.6 µM (inactive) with CCRF-CEM; 32.5 µM (inactive) in the assay on A549; 23 µM (inactive) in the assay on HL-60; 20.1 µM (inactive) in the assay with UACC-62. Also, the GI50 in the assay on BT-549 is 29 µM (inactive); in the assay with SW-620 it was 36.6 µM (inactive); in the assay with HOP-62 it was 30.5 µM (inactive); in the assay on Hs-578T it was 20.7 µM (inactive); in the assay with MDA-MB-435, 36.6 µM (inactive); in the assay with SF-268, 20.8 µM (inactive). Also, the GI50 in the assay on HT-29 is 30 µM (inactive).

On to `CC1=NN(C(=O)CC(=O)Nc2ccccc2C)C(=O)C1/N=N/c1ccc(C(=O)O)cc1` (stereo not drawn), for which the GI50 in the assay with K562, in the assay with MDA-MB-231, in the assay with IGROV-1, with HCC 2998, in the assay on Malme-3M and in the assay with OVCAR-4 was > 100 µM (inactive) in each case. For the same molecule, the GI50 in the assay on SF-539 was > 100 µM (inactive); in the assay with HCT-15 it was above 100 µM; in the assay on CCRF-CEM, 86.9 µM (inactive); in the assay with A549, > 100 µM (inactive); in the assay with HL-60, > 100 µM (inactive); in the assay on UACC-62 it was > 100 µM (inactive). For the same molecule, the GI50 is > 100 µM (inactive) in the assay on BT-549; > 100 µM (inactive) with SW-620; > 100 µM (inactive) with HOP-62; 68.9 µM (inactive) in the assay on Hs-578T; > 100 µM (inactive) in the assay on MDA-MB-435; > 100 µM (inactive) in the assay on SF-268. Moreover, the GI50 in the assay on HT-29 is > 100 µM (inactive).

As for `O=C(c1ccccc1)n1cc(-c2ccccc2)c2c(=O)nc[nH]c21`, the GI50 with MDA-MB-231, in the assay on IGROV-1, in the assay with HCC 2998, in the assay on Malme-3M, in the assay with OVCAR-4 and in the assay on SF-539 was > 100 µM (inactive) throughout. Moreover, the GI50 in the assay on HCT-15 is above 100 µM; with SK-OV-3 it was > 100 µM (inactive); in the assay with CCRF-CEM, > 100 µM (inactive); in the assay with A549 it was > 100 µM (inactive); in the assay on UACC-62, > 100 µM (inactive); in the assay with BT-549 it was > 100 µM (inactive). The GI50 with SW-620, with HOP-62, with Hs-578T, in the assay on MDA-MB-435, in the assay with SF-268 and in the assay with HT-29 was > 100 µM (inactive) throughout.

Consider `CCOC(=O)N1CCN(c2c(N)nc(C)nc2O)CC1`, for which the GI50 in the assay with K562, with MDA-MB-231, in the assay on HCC 2998, in the assay on Malme-3M, in the assay with OVCAR-4 and in the assay with SF-539 was > 100 µM (inactive) in each case. The GI50 in the assay on HCT-15 is above 100 µM; in the assay on CCRF-CEM it was > 100 µM (inactive); in the assay with A549 it was > 100 µM (inactive); in the assay with HL-60 it was > 100 µM (inactive); with BT-549, > 100 µM (inactive); in the assay with SW-620 it was > 100 µM (inactive). Besides, the GI50 in the assay on HOP-62, with Hs-578T, in the assay on MDA-MB-435, in the assay on SF-268 and in the assay with HT-29 was > 100 µM (inactive) each time.

As for `COc1cc2c(/C=C3/C(=O)Nc4ccccc43)c(Cl)[nH]c2cc1C`, the GI50 with K562 is 0.0601 µM (active); with MDA-MB-231, 0.0893 µM (active); with IGROV-1, 0.034 µM (active); with HCC 2998 it was 0.0861 µM (active); in the assay with OVCAR-4, 0.0521 µM (active); in the assay with SF-539, 0.0234 µM (active). Besides, the GI50 was 0.0408 µM with HCT-15; 0.0314 µM (active) with SK-OV-3; 0.0583 µM (active) with CCRF-CEM; 0.0619 µM (active) in the assay on A549; 0.035 µM (active) with HL-60; 0.0371 µM (active) in the assay with UACC-62. Besides, the GI50 in the assay on BT-549 was 0.0603 µM (active); in the assay with SW-620 it was 0.0855 µM (active); in the assay with HOP-62, 0.107 µM (active); in the assay with Hs-578T, 0.0427 µM (active); with MDA-MB-435 it was 0.0141 µM (active); with SF-268 it was 0.0644 µM (active). For the same molecule, the GI50 in the assay on HT-29 is 0.0495 µM (active).
